In patent publication US10143681B2, “Factor XIa inhibitors” (MERCK SHARP & DOHME CORP., priority 2016, dated 2018):

Key:
[1] = test system: Human plasma (intrinsic coagulation cascade); test: Activated Partial Thromboplastin Time (aPTT) Assay; settings: concentration that causes a 50% (1.5×) increase of clot time over vehicle
Summary of the method: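 Inhibitors spiked into pooled citrated normal-donor human plasma (aPTT 28-40 seconds), run on automated coagulation analyzer: ellagic acid activation of Factor XII, then clot time after recalcification. Reported as concentration giving 50% (1.5×) prolongation over vehicle clot time.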

Human plasma kallikrein = Human plasma kallikrein (Homo sapiens (Human), UniProt P03952); test: Kallikrein Assay; format: biochemical; settings: purified Human plasma kallikrein 0.5 nM, substrate Acetyl-K-P-R-AFC; read-out: P. KLK IC50
Protocol: The effectiveness of a compound of the present invention as an inhibitor of Kallikrein can be determined using a relevant purified serine protease, and an appropriate synthetic substrate. The rate of hydrolysis of the chromogenic or fluorogenic substrate by the relevant serine protease was measured both in the absence and presence of compounds of the present invention. Assays were conducted at room temperature or at 37° C. […] A decrease in the rate of fluorescence change in the presence of inhibitor is indicative of enzyme inhibition. Such methods are known to one skilled in the art. The results of this assay are expressed as the half-maximal inhibitory concentrations (IC50), or the inhibitory constant, Ki.
Kallikrein determinations were made in 50 mM HEPES buffer at pH 7.4 containing 150 mM NaCl, 5 mM CaCl2, and 0.1% PEG 8000 (polyethylene glycol; Fisher Scientific). Determinations were made using purified Human plasma kallikrein at a final concentration of 0.5 nM (Enzyme Research Laboratories) and the synthetic substrate, Acetyl-K-P-R-AFC (Sigma # C6608) at a concentration of […].
Times required to achieve equilibration between enzyme and inhibitor were determined in control experiments. The reactions were performed under linear progress curve conditions and fluorescence increase measured at 405 Ex/510 Em nm. […] IC50 was determined by inflection point from a four parameter logistic curve fit. Ki was calculated using the Cheng Prusoff equation, Ki=IC50/(1+([S]/Km)).

human Factor XIa = human Factor XIa (Homo sapiens (Human), UniProt P03951); test: Factor XIa Assay; format: biochemical; settings: human Factor XIa 0.04 nM, 30 min pre-incubation at 25° C., substrate GPR-AFC; read-out: FXIa IC50
Summary of the method: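 IC50 values were obtained from four-parameter log(inhibitor)-response fits of % inhibition, then converted to Ki using Cheng-Prusoff. GPR-AFC hydrolysis was read at 400/505 nm after 60 min at 25 °C.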

Sequence of Human plasma kallikrein (P03952 391-638): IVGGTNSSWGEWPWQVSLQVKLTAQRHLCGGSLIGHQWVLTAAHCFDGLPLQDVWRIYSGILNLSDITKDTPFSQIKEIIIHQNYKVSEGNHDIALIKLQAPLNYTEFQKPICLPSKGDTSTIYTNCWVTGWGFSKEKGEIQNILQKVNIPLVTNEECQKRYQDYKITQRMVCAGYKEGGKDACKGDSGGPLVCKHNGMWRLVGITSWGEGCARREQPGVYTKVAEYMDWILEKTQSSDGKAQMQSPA
Sequence of Human plasma kallikrein (P03952 20-390 partner): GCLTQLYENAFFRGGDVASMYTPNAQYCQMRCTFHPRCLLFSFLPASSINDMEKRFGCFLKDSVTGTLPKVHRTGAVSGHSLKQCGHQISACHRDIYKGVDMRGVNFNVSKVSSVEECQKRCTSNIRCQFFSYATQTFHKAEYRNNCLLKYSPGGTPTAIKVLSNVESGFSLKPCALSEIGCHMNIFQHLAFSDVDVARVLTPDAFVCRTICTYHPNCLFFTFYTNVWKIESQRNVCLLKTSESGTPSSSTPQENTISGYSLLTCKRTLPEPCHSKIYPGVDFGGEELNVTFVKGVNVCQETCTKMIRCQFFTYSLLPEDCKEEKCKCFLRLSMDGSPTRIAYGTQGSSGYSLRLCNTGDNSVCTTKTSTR
Sequence of human Factor XIa (P03951 388-625): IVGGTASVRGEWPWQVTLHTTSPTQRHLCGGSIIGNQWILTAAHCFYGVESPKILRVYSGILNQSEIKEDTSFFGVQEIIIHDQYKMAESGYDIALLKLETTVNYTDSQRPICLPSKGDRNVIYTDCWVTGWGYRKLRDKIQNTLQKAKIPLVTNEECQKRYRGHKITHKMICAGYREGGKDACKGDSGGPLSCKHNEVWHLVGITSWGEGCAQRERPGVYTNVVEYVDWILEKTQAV
Sequence of human Factor XIa (P03951 19-387 partner): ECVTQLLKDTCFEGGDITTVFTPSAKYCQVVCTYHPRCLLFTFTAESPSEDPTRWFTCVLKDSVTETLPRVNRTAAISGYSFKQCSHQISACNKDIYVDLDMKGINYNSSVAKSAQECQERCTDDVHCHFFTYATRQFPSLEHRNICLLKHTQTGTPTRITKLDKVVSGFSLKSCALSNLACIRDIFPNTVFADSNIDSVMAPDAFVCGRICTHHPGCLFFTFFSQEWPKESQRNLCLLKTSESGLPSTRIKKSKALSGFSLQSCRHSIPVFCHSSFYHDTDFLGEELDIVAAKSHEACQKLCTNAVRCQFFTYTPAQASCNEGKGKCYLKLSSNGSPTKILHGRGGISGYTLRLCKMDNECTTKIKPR

| SMILES | aPTT (1.5x) [1] [µM] | IC50 (Human plasma kallikrein) [nM] | IC50 (human Factor XIa) [nM] |
| --- | --- | --- | --- |
| O=C(O)c1ccc(NC(=O)[C@H](CC2CC2)c2ccc(-c3c(OCC4CC4)ccc(Cl)c3F)c[n+]2[O-])cc1 [Example 13, (R)-4-[(2-{5-[3-chloro-6-(cyclopropylmethoxy)-2-fluorophenyl]-1-oxidopyridin-2-yl}-3-cyclopropylpropanoyl)amino] benzoic acid] | 11.1 | 984 | 6.9 |
| O=C(O)c1ccc(NC(=O)C(CC2CC2)c2ccc(-c3c(C(F)(F)F)ccc(Cl)c3F)c[n+]2[O-])cc1 (single isomer, unassigned) [Example 27, (R)- or (S)-2-(1-((4-carboxyphenyl)amino)-3-cyclopropyl-1-oxopropan-2-yl)-5-(3-chloro-2-fluoro-6-(trifluoromethyl)phenyl)pyridine 1-oxide] | 2.68 | 162 | 2.8 |
| C[C@]1(O)CC[C@H](CC(C(=O)Nc2ccc(C(=O)O)cc2)c2ccc(-c3c(C(F)F)ccc(Cl)c3F)c[n+]2[O-])CC1 (single isomer, unassigned) [Example 47, 2-(1-((4-carboxyphenyl)amino)-3-((1r,4r)-4-hydroxy-4-methylcyclohexyl)-1-oxopropan-2-yl)-5-(3-chloro-6-(difluoromethyl)-2-fluorophenyl)pyridine 1-oxide] | 0.59 | 20 | 0.56 |
| CCOc1ccc(Cl)c(F)c1-c1ccc(C(CC2CC2)C(=O)Nc2ccc(C(=O)O)cc2)[n+]([O-])c1 (single isomer, unassigned) [Example 9, (R)- or (S)-4-({2-[5-(3-chloro-6-ethoxy-2-fluorophenyl)-1-oxidopyridin-2-yl]-3-cyclopropylpropanoyl}amino) benzoic acid] | 13 | 857 | 9 |
| O=C(O)c1ccc(NC(=O)C(CC2CCC2)c2ccc(-c3c(OC(F)F)ccc(Cl)c3F)c[n+]2[O-])cc1 (single isomer, unassigned) [Example 15, (R)- or (S)-4-[(2-{5-[3-chloro-6-(difluoromethoxy)-2-fluorophenyl]-1-oxidopyridin-2-yl}-3-cyclobutylpropanoyl)amino] benzoic acid] | 0.75 | 20 | 0.56 |
| O=C(O)c1ccc(NC(=O)C(CC2CC2CF)c2ccc(-c3c(C(F)F)ccc(Cl)c3F)c[n+]2[O-])cc1 (single isomer, unassigned) [Example 94, 2-(1-((4-carboxyphenyl)amino)-3-(2-(fluoromethyl)cyclopropyl)-1-oxopropan-2-yl)-5-(3-chloro-6-(difluoromethyl)-2-fluorophenyl)pyridine 1-oxide] | 0.4 | 6 | 0.4 |
| O=C(O)c1ccc(NC(=O)C(CC2CC2C(F)(F)F)c2ccc(-c3c(OC(F)F)ccc(Cl)c3F)c[n+]2[O-])cc1 (single isomer, unassigned) [Example 107, 2-(1-((4-carboxyphenyl)amino)-1-oxo-3-(2-(trifluoromethyl)cyclopropyl)propan-2-yl)-5-(3-chloro-6-(difluoromethoxy)-2-fluorophenyl)pyridine 1-oxide] | 1.74 | 24.2 | 3.2 |
| O=C(O)c1ccc(NC(=O)C(CC2CC2)c2ccc(-c3cc(Cl)ccc3C(F)F)c[n+]2[O-])cc1 (single isomer, unassigned) [Example 29, (R)- or (S)-2-(1-((4-carboxyphenyl)amino)-3-cyclopropyl-1-oxopropan-2-yl)-5-(5-chloro-2-(difluoromethyl)phenyl)pyridine 1-oxide] | 2.07 | 84 | 4.3 |
| O=C(O)c1ccc(NC(=O)C(CC2CC(F)C2)c2ccc(-c3c(C(F)F)ccc(Cl)c3F)c[n+]2[O-])cc1 (single isomer, unassigned) [Example 81, 2-(1-((4-carboxyphenyl)amino)-3-(3-fluorocyclobutyl)-1-oxopropan-2-yl)-5-(3-chloro-6-(difluoromethyl)-2-fluorophenyl)pyridine-1-oxide] | 0.58 | 8.4 | 1.2 |
| O=C(O)c1ccc(NC(=O)C(CC2CCCC2)c2ccc(-c3c(OC(F)F)ccc(Cl)c3F)c[n+]2[O-])cc1 (single isomer, unassigned) [Example 19, (R)- or (S)-4-[(2-{5-[3-chloro-6-(difluoromethoxy)-2-fluorophenyl]-1-oxidopyridin-2-yl}-3-cyclopentylpropanoyl)amino] benzoic acid] | 1.3 | 20 | 0.45 |
| CC1CC1C[C@@H](C(=O)Nc1ccc(C(=O)O)cc1)c1ccc(-c2c(C(F)F)ccc(Cl)c2F)c[n+]1[O-] (single isomer, unassigned) [Example 63] | 2.13 | 2.9 | 0.19 |
| O=C(O)c1ccc(NC(=O)C(CC2CC2C(F)(F)F)c2ccc(-c3c(OC(F)F)ccc(Cl)c3F)c[n+]2[O-])cc1 (single isomer, unassigned) [Example 109, 2-(1-((4-carboxyphenyl)amino)-1-oxo-3-(2-(trifluoromethyl)cyclopropyl)propan-2-yl)-5-(3-chloro-6-(difluoromethoxy)-2-fluorophenyl)pyridine 1-oxide] | 0.76 | 25.2 | 1.2 |
| O=C(O)c1ccc(NC(=O)C(CC2CC2)c2ccc(-c3cc(Cl)ccc3OC(F)F)c[n+]2[O-])cc1 (single isomer, unassigned) [Example 7, (R)- or (S)-4-[(2-{5-[5-chloro-2-(difluoromethoxy)phenyl]-1-oxidopyridin-2-yl}-3-cyclopropylpropanoyl)amino] benzoic acid] | 16.38 | 265 | 7.6 |
| C[C@]1(O)CC[C@@H](CC(C(=O)Nc2ccc(C(=O)O)cc2)c2ccc(-c3c(C(F)F)ccc(Cl)c3F)c[n+]2[O-])CC1 (single isomer, unassigned) [Example 45, 2-(1-((4-carboxyphenyl)amino)-3-((1s,4s)-4-hydroxy-4-methylcyclohexyl)-1-oxopropan-2-yl)-5-(3-chloro-6-(difluoromethyl)-2-fluorophenyl)pyridine 1-oxide] | 1.16 | 12 | 2.7 |
| O=C(O)c1ccc(NC(=O)C(CC2CC2CF)c2ccc(-c3c(C(F)F)ccc(Cl)c3F)c[n+]2[O-])cc1 (single isomer, unassigned) [Example 95, 2-(1-((4-carboxyphenyl)amino)-3-(2-(fluoromethyl)cyclopropyl)-1-oxopropan-2-yl)-5-(3-chloro-6-(difluoromethyl)-2-fluorophenyl)pyridine-1-oxide] | 0.43 | 9.6 | 0.4 |
| O=C(O)c1ccc(NC(=O)C(CC2CC(F)(F)C2)c2ccc(-c3c(OC(F)F)ccc(Cl)c3F)c[n+]2[O-])cc1 (racemic) [Example 50, (S)- and (R)-2-(1-((4-carboxyphenyl)amino)-3-(3,3-difluorocyclobutyl)-1-oxopropan-2-yl)-5-(3-chloro-6-(difluoromethoxy)-2-fluorophenyl)pyridine 1-oxide] | 1.33 | 47 |  |
